The structures appear in SMILES notation.

Sequence of Mitogen-activated protein kinase 1 (P28482 whole entry): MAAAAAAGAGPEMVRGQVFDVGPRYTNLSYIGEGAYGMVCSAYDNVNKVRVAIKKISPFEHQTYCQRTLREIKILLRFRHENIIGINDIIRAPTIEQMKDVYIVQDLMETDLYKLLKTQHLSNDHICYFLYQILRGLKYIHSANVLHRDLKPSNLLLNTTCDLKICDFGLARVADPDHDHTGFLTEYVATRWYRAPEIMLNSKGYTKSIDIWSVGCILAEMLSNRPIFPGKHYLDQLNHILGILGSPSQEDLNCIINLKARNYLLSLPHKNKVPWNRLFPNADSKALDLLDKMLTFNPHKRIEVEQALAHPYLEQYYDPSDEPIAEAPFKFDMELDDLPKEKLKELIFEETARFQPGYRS

The assay concerns the target Mitogen-activated protein kinase 1 (Homo sapiens, UniProt P28482). Briefly: Inhibition of ERK2 (unknown origin) using […] as substrate after 40 mins by ADP-Glo luminescence assay.
As usually defined, the IC50 is the point on the concentration scale where inhibition reaches its midpoint. As to `O=C1c2cc(-c3ccnc(NC4CCOCC4)n3)ccc2CN1Cc1ccc(Cl)cc1`, half-maximal inhibition (IC50) was put at 35.6 nM.
Next, `Cn1nnnc1Nc1nccc(-c2ccc3c(c2)C(=O)N(C(CO)c2cccc(Cl)c2)C3)n1` (stereo not drawn): 19.8 nM.
`Cn1nccc1Nc1nccc(-c2ccc3c(c2)C(=O)N(Cc2ccccn2)C3)n1` gave a half-maximal inhibitory concentration (IC50) above 1000 nM.
With `O=C1c2cc(-c3ccnc(NC4CCOCC4)n3)ccc2CN1C(CO)c1ccc(Cl)c(Cl)c1` (stereo not drawn), the IC50 came to 3.1 nM.
As to `Cc1cccc(CN2Cc3ccc(-c4ccnc(Nc5ccnn5C)n4)cc3C2=O)n1`, the half-inhibitory concentration (IC50) is above 1000 nM.
Next, `O=C1c2cc(-c3ccnc(NC4CCC(O)CC4)n3)ccc2CN1C(CO)c1cccc(Cl)c1` (stereo not drawn): 2.7 nM.
Then `O=C1c2cc(-c3ccnc(NCCCO)n3)ccc2CN1C(CO)c1cccc(Cl)c1` (stereo not drawn), with 38.4 nM.
Next, `O=C1c2cc(-c3ccnc(NCCO)n3)ccc2CN1C(CO)c1cccc(Cl)c1` (stereo not drawn): 17.6 nM; `Cn1cc(Nc2nccc(-c3ccc4c(c3)C(=O)N([C@H](CO)c3cccc(Cl)c3)C4)n2)cn1`: 1.1 nM; `Cn1nccc1Nc1nccc(-c2ccc3c(c2)C(=O)N(Cc2cccnc2)C3)n1`: above 1000 nM.
The molecule `O=C1c2cc(-c3ccnc(NC4CCNC4)n3)ccc2CN1C(CO)c1cccc(Cl)c1` (stereo not drawn) registered an IC50 above 1000 nM.
Turning to `O=C1c2cc(-c3ccnc(Nc4ccc(F)cc4)n3)ccc2CN1Cc1cccc(Cl)c1`, the IC50 is above 1000 nM.
Next, `O=C1c2cc(-c3ccnc(NC4CCOC4)n3)ccc2CN1C(CO)c1cccc(Cl)c1` (stereo not drawn): 5.4 nM; `O=C1c2cc(-c3ccnc(Nc4nccs4)n3)ccc2CN1C(CO)c1cccc(Cl)c1` (stereo not drawn): 22.3 nM.
With `Cn1ccc(Nc2nccc(-c3ccc4c(c3)C(=O)N(C(CO)c3cccc(Cl)c3)C4)n2)n1` (stereo not drawn), inhibition was half-maximal at 25.6 nM (IC50).
`Cn1cc(Nc2nccc(-c3ccc4c(c3)C(=O)N([C@@H](CO)c3cccc(Cl)c3)C4)n2)cn1` gave an IC50 of 633 nM.
Then `Cn1nccc1Nc1nccc(-c2ccc3c(c2)C(=O)N(Cc2ccc(Cl)c(F)c2)C3)n1`, with 5.6 nM; and `O=C1c2cc(-c3ccnc(Nc4ncco4)n3)ccc2CN1C(CO)c1cccc(Cl)c1` (stereo not drawn), with 93.3 nM.
